According to patent US20200325505A1, “FILAMENTOUS FUNGI CAPABLE OF PRODUCING VERY LONG CHAIN FATTY ACIDS” (UT-Battelle, LLC, priority 2019, published 2020):
Where two headings read alike, the source gives them in different places. Residues, ends and D or L forms follow the SMILES beside them.

Test system: Mortierella elongata AG77
Assay: Nitrogen source utilisation in Biolog 96-well plates, formazan formation after tetrazolium addition
Format: cell-based
Details: for Metabolized: Metabolized = more formazan formation than a control containing no nitrogen source, observed visually at 2 h, 24 h, 148 h
Procedure: Two 300 mL volumes of growth medium comprising 1 g/L KH2PO4, 1 g/L MgSO4 7H2O, 0.1 g/L CaCl2, 0.02 g/L FeNaEDTA, 0.1 g/L NaCl, and either 1 g/L NH4NO3 or 20 g/L sucrose were prepared. […] Aliquots of 200 μL of carbon-free medium or nitrogen-free medium were pipetted into each well of a set of 96-well plates previously prepared with lyophilized putative carbon or nitrogen sources (Biolog Inc., Hayward, Calif.). Inocula were prepared by perforating a culture of Mortierella elongata AG77 grown on 20 g/L potato dextrose agar with a 3 mm diameter cork borer and separating the surface mycelial mat from the solid growth medium using tweezers. Each well was inoculated with one inoculum. Cultures were incubated at 21° C. for 24 hours to allow metabolic changes to stabilize, and then 100 μL of 3 g/L tetrazolium chloride in water was added to each well.
Conclusions were based on rate and intensity of formazan formation using the 3-(4,5-dimethylthiazol-2-yl)-2,5-diphenyltetrazolium bromide ([…]) assay. “Metabolized” indicates more formazan formation than a control containing no nitrogen source, and “Toxic” indicates less formazan formation than a control containing no nitrogen source, “Metabolized” and “Toxic” assignments are mutually exclusive. In this example, a compound may be “Metabolized” or “Toxic,” but not both.

[1] = compound as nitrogen source, Toxic = less formazan formation than a control containing no nitrogen source

SMILES | Toxic | Metabolized (compound as nitrogen source) | Toxic [1] | Nitrogen sources that Mortierella elongata AG77 can metabolize (text summary of Table 4)
NCCCC[C@@H](N)C(=O)O [D-Lysine] | no | no | – | –
N[C@@H]1C(O)O[C@H](CO)[C@@H](O)[C@@H]1O (stereo partly drawn) [D-Mannosamine] | no | no | – | –
CC(C)[C@@H](N)C(=O)O [D-Valine] | no | no | – | –
CCN [Ethylamine] | – | no | no | –
NCCN [Ethylenediamine] | no | no | – | –
NC=O [Formamide] | – | no | no | –
NCC(=O)N[C@@H](CC(N)=O)C(=O)O [Gly-Asn] (H-Gly-Asn-OH) | – | no | no | –
NCC(=O)N[C@@H](CCC(N)=O)C(=O)O [Gly-Gln] (H-Gly-Gln-OH) | – | no | no | –
CSCC[C@H](NC(=O)CN)C(=O)O [Gly-Met] | – | no | no | –
Nc1nc2nc[nH]c2c(=O)[nH]1 [Guanine] | yes | no | – | –
Nc1nc2c(ncn2[C@@H]2O[C@H](CO)[C@@H](O)[C@H]2O)c(=O)[nH]1 [Guanosine] | – | no | no | –
NCCc1c[nH]cn1 [Histamine] | no | no | – | –
NO [Hydroxylamine] | – | no | – | –
NC(=O)NCCC[C@H](N)C(=O)O [L-Citrulline] | – | no | no | –
N[C@@H](CS)C(=O)O [L-Cysteine] | – | no | – | –
N[C@@H](Cc1c[nH]c2ccccc12)C(=O)O [L-Tryptophan] | no | no | – | –

SMILES | Toxic | Metabolized (compound as nitrogen source) | Toxic [1] | Nitrogen sources that Mortierella elongata AG77 can metabolize (text summary of Table 4)
N[C@@H](Cc1ccc(O)cc1)C(=O)O [L-Tyrosine] | – | no | no | –
CSCC[C@H](N)C(=O)N[C@@H](C)C(=O)O [Met-Ala] (H-Met-Ala-OH) | – | no | no | –
CN [Methylamine] | – | no | no | –
CC(=O)N[C@@H]1C(O)O[C@H](CO)[C@@H](O)[C@@H]1O (stereo partly drawn) [N-Acetyl-D-Mannosamine] | – | no | no | –
CCCCCN [N-Amylamine] | no | no | – | –
CCCCN [N-Butylamine] | – | no | no | –
O=NO [Nitrite] | – | no | no | –
O=C1NC(=O)C(=O)N1 [Parabanic Acid] | – | yes | no | can metabolize
Cc1c[nH]c(=O)[nH]c1=O [Thymine] | no | no | – | –
O=c1cc[nH]c(=O)[nH]1 [Uracil] | no | no | – | –
NC(N)=O [Urea] | – | no | no | –
O=c1[nH]c(=O)c2[nH]c(=O)[nH]c2[nH]1 [Uric Acid] | – | no | no | –
O=c1[nH]c(=O)c2[nH]cnc2[nH]1 [Xanthine] | no | no | – | –
O=c1[nH]c(=O)c2ncn([C@@H]3O[C@H](CO)[C@@H](O)[C@H]3O)c2[nH]1 [Xanthosine] | no | no | – | –
CCC[C@H](N)C(=O)O [α-Amino-N-Valeric Acid] | – | no | no | –
NCCCCCC(=O)O [ε-Amino-N-Caproic Acid] | – | no | no | –
